{"source": "patent US20100297112A1", "about": "“COMBINATIONS COMPRISING DMXAA FOR THE TREATMENT OF CANCER” (Antisoma Research Limited, priority 2005, published 2010)", "key": {"[1]": {"test_system": "HT29 (colorectal) xenografts", "settings": "for Regression Duration: days tumour volume less than original treatment volume; for Tumour Growth Delay: treated versus control tumours to quadruple in volume (control 17 days); for Median VQT: tumour volume quadrupling time; for Response CR (Complete Response): undetectable tumour over two weeks; for Response PR (Partial Response): ≧50% reduction in tumour size sustained over two weeks", "method": "(§1) Xenografts for human lung and colorectal cancers are set-up in groups of nude, athymic mice. The cell lines selected are HT29 (ATCC number HTB-38), a colorectal adenocarcinoma, and A549 (ATCC number CCL-185), a lung carcinoma.\n(§2) For this study, DMXAA is given twice in each of Weeks 1 and 4 of the study.\n(§3) Xenografts are measured two or three times per week and their absolute volume recorded; xenograft tumour volume relative to that recorded on Day 0 (V0) is then calculated. The time taken to reach a relative tumour volume of 3× V0 is used as a surrogate marker for survival."}, "[2]": {"test_system": "A549 (lung carcinoma) xenografts", "settings": "for Regression Duration: Example 1, days tumour volume less than original treatment volume; for Tumour Growth Delay: Example 1, treated versus control tumours to quadruple in volume (control 25 days); for Median VQT: Example 1, tumour volume quadrupling time; for Response CR (Complete Response): Example 1, undetectable tumour over two weeks; for Response PR (Partial Response): Example 1, ≧50% reduction in tumour size sustained over two weeks", "method": "as §1, §2, §3"}, "[3]": {"test_system": "A549 (lung carcinoma) xenografts", "assay": "A549 xenograft study with paclitaxel triple combination (Example 2)", "assay_type": "in vivo, mice", "settings": "for Drug deaths: Paclitaxel 5, Avastin 5, DMXAA 21 mg/kg by injection; for Regression Duration: days tumour volume less than original treatment volume; for Tumour Growth Delay: treated versus control tumours to quadruple in volume (control 25 days); for Median VQT: tumour volume quadrupling time; for Response CR (Complete Response): undetectable tumour over two weeks; for Response PD (Progressive Disease): ≧50% increase in tumour size; for Response PR (Partial Response): ≧50% reduction in tumour size sustained over two weeks", "source_text": "The experimental set-up of this example with respect to the xenografts, mice and cell line is as described in Example 1 above."}, "[4]": {"test_system": "human tumours", "settings": "phase I, monotherapy, cited from earlier work"}, "[5]": {"settings": "cited from earlier work"}, "[6]": {"settings": "diclofenac 100 mg/kg i.p., cited from earlier work"}}, "note": "Where two headings read alike, the source gives them in different places.", "data": [{"compound": "Cc1ccc2c(=O)c3cccc(CC(=O)O)c3oc2c1C", "note": "[DMXAA, 5,6-dimethylxanthenone-4-acetic acid]", "values": [{"measurement": "Response SD (Stable Disease)", "setting": "[1]", "value": 0}, {"measurement": "TTP (median time to disease progression)", "setting": "[1]", "value": 16, "unit": "days"}, {"measurement": "Regression Duration", "setting": "[1]", "value": 10, "unit": "days"}, {"measurement": "Tumour Growth Delay", "setting": "[1]", "value": 29, "unit": "days"}, {"measurement": "Median VQT", "setting": "[1]", "value": 46, "unit": "days"}, {"measurement": "Response CR (Complete Response)", "setting": "[1]", "value": 0}, {"measurement": "Response PD (Progressive Disease)", "setting": "[1]; ≧50% increase in tumour size", "value": 5}, {"measurement": "Response PR (Partial Response)", "setting": "[1]", "value": 1}, {"measurement": "Response SD (Stable Disease)", "setting": "[2]; Example 1", "value": 0}, {"measurement": "TTP (median time to disease progression)", "setting": "[2]; Example 1", "value": 14, "unit": "days"}, {"measurement": "Regression Duration", "setting": "[2]", "value": 0, "unit": "days"}, {"measurement": "Tumour Growth Delay", "setting": "[2]", "value": 32, "unit": "days"}, {"measurement": "Median VQT", "setting": "[2]", "value": 57, "unit": "days"}, {"measurement": "Response CR (Complete Response)", "setting": "[2]", "value": 0}, {"measurement": "Response PD (Progressive Disease)", "setting": "[2]; Example 1, ≧50% increase in tumour size", "value": 11}, {"measurement": "Response PR (Partial Response)", "setting": "[2]", "value": 0}, {"measurement": "Response SD (Stable Disease)", "setting": "[3]", "value": 0}, {"measurement": "TTP (median time to disease progression)", "setting": "[3]", "value": 7, "unit": "days"}, {"measurement": "Drug deaths", "setting": "[3]", "value": "4/11"}, {"measurement": "Regression Duration", "setting": "[3]", "value": 0, "unit": "days"}, {"measurement": "Tumour Growth Delay", "setting": "[3]", "value": ">21", "unit": "days"}, {"measurement": "Median VQT", "setting": "[3]", "value": ">46", "unit": "days"}, {"measurement": "Response CR (Complete Response)", "setting": "[3]", "value": 0}, {"measurement": "Response PD (Progressive Disease)", "setting": "[3]", "value": 7}, {"measurement": "Response PR (Partial Response)", "setting": "[3]", "value": 0}, {"measurement": "tumour blood flow (dynamic MRI)", "setting": "[4]; well-tolerated doses", "value": "significant reduction in tumour blood flow"}, {"measurement": "tumour responses", "setting": "[4]", "value": "very few tumour responses"}]}, {"compound": "CC(=O)O[C@H]1C(=O)[C@@]2(C)[C@H]([C@H](OC(=O)c3ccccc3)[C@]3(O)C[C@H](OC(=O)[C@H](O)[C@@H](NC(=O)c4ccccc4)c4ccccc4)C(C)=C1C3(C)C)[C@]1(OC(C)=O)CO[C@@H]1C[C@@H]2O", "note": "[Paclitaxel, paclitaxel]", "values": [{"measurement": "Response SD (Stable Disease)", "setting": "[3]", "value": 0}, {"measurement": "TTP (median time to disease progression)", "setting": "[3]", "value": 7, "unit": "days"}, {"measurement": "Drug deaths", "setting": "[3]", "value": "0/11"}, {"measurement": "Regression Duration", "setting": "[3]", "value": 0, "unit": "days"}, {"measurement": "Tumour Growth Delay", "setting": "[3]", "value": 3, "unit": "days"}, {"measurement": "Median VQT", "setting": "[3]", "value": 28, "unit": "days"}, {"measurement": "Response CR (Complete Response)", "setting": "[3]", "value": 0}, {"measurement": "Response PD (Progressive Disease)", "setting": "[3]", "value": 11}, {"measurement": "Response PR (Partial Response)", "setting": "[3]", "value": 0}]}, {"compound": "O=C1CCC(N2C(=O)c3ccccc3C2=O)C(=O)N1", "note": "(centres unmarked) [Thalidomide, thalidomide]", "values": [{"measurement": "increase of the AUC of DMXAA", "setting": "[5]; in plasma, liver and spleen", "value": 1.8, "unit": "times"}, {"measurement": "increase of the AUC of DMXAA", "setting": "[5]; in tumour", "value": "three"}]}, {"compound": "O=C(O)Cc1ccccc1Nc1c(Cl)cccc1Cl", "note": "[diclofenac]", "values": [{"measurement": "increase in the plasma DMXAA AUC", "setting": "[6]; female mice", "value": 31, "unit": "%"}, {"measurement": "increase in T1/2 of DMXAA", "setting": "[6]; male and female mice, P<0.05", "value": "threefold"}, {"measurement": "increase in the plasma DMXAA AUC", "setting": "[6]; male mice", "value": 24, "unit": "%"}]}, {"compound": "Avastin ™: humanised monoclonal antibody that binds to vascular endothelial growth factor (VEGF)", "values": [{"measurement": "Regression Duration", "setting": "[1]", "value": 0, "unit": "days"}, {"measurement": "Tumour Growth Delay", "setting": "[1]", "value": 17, "unit": "days"}, {"measurement": "Median VQT", "setting": "[1]", "value": 34, "unit": "days"}, {"measurement": "Response CR (Complete Response)", "setting": "[1]", "value": 0}, {"measurement": "Response PR (Partial Response)", "setting": "[1]", "value": 0}, {"measurement": "TTP (median time to disease progression)", "setting": "[2]; Example 1", "value": 8, "unit": "days"}, {"measurement": "Regression Duration", "setting": "[2]", "value": 0, "unit": "days"}, {"measurement": "Tumour Growth Delay", "setting": "[2]", "value": 42, "unit": "days"}, {"measurement": "Median VQT", "setting": "[2]", "value": 67, "unit": "days"}, {"measurement": "Response CR (Complete Response)", "setting": "[2]", "value": 0}, {"measurement": "Response PR (Partial Response)", "setting": "[2]", "value": 1}, {"measurement": "TTP (median time to disease progression)", "setting": "[3]", "value": 7, "unit": "days"}, {"measurement": "Drug deaths", "setting": "[3]", "value": "0/11"}, {"measurement": "Regression Duration", "setting": "[3]", "value": 0, "unit": "days"}, {"measurement": "Tumour Growth Delay", "setting": "[3]", "value": ">17", "unit": "days"}, {"measurement": "Median VQT", "setting": "[3]", "value": ">42", "unit": "days"}, {"measurement": "Response CR (Complete Response)", "setting": "[3]", "value": 0}, {"measurement": "Response PR (Partial Response)", "setting": "[3]", "value": 0}]}]}
